Test results reported in the supplement of paper PMC10307832.

Tests used:
Assay in all cases: relative viability (nuclei count vs DMSO), 5 days (fraction); higher = more cells survive
[1] = compound: C1=CC=C2C(=C1)N=C(S2)C(C#N)C3=NC(=NC=C3)NCCC4=CN=CC=C4
How it was run: (§1)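 Viability here means nuclei in treated wells divided by nuclei in vehicle wells, reported as the median across plates. Only plates with control CV below 25% and at least one doubling passed. Lung cancer cell lines in 1536-well plates were exposed to five √10-spaced library-drug doses for 5 days and counted from 4× Hoechst images in MetaXpress.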

CUDC-101 = compound: C#Cc1cccc(Nc2ncnc3cc(OC)c(OCCCCCCC(=O)NO)cc23)c1 [CUDC-101]
How it was run: as §1

Vandetanib = compound: COc1cc2/c(=N/c3ccc(Br)cc3F)nc[nH]c2cc1OCC1CCN(C)CC1 [Vandetanib]
How it was run: as §1

[2] = compound: C1=CC=C2C(=C1)N=C(S2)C(C#N)C3=NC(=NC=C3)NCCC4=CN=CC=C4 + CS(=O)(=O)N1CCN(Cc2cc3nc(-c4cccc5[nH]ncc45)nc(N4CCOCC4)c3s2)CC1 [Pictilisib] (partner 1 µM)
How it was run: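 Lung cancer cell lines in 1536-well plates were dosed by pin tool the day after seeding, either with one drug alone or with a fixed anchor-drug dose plus five library-drug doses (not always all listed) in √10 steps. After 5 days, cells were fixed and their nuclei stained in one step (final 0.05% Triton X-100, 1% formaldehyde, 1 ug/ml Hoechst), then counted on 4× images. Relative viability is the nuclei count in treated wells divided by that in vehicle wells. Values are medians of duplicate plates.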

UMC-11
relative viability ([1]; 0.005 µM): 0.884 | relative viability ([1]; 0.01581 µM): 1.01 | relative viability ([1]; 0.05 µM): 0.96 | relative viability ([1]; 0.1581 µM): 1.16 | relative viability ([1]; 0.5 µM): 0.967 | relative viability (CUDC-101; 0.01 µM): 1.03 | relative viability (CUDC-101; 0.03162 µM): 0.957 | relative viability (CUDC-101; 0.1 µM): 0.927 | relative viability (CUDC-101; 0.3162 µM): 0.705 | relative viability (CUDC-101; 1 µM): 0.31 | relative viability (Vandetanib; 0.02 µM): 0.94 | relative viability (Vandetanib; 0.06325 µM): 0.901 | relative viability (Vandetanib; 0.2 µM): 0.9 | relative viability (Vandetanib; 0.6325 µM): 0.91 | relative viability (Vandetanib; 2 µM): 0.964 | relative viability ([2]; first compound 0.005 µM): 0.717 | relative viability ([2]; first compound 0.01581 µM): 0.748 | relative viability ([2]; first compound 0.05 µM): 0.689 | relative viability ([2]; first compound 0.1581 µM): 0.877 | relative viability ([2]; first compound 0.5 µM): 0.777
